Data as given in publication PMC8434392, “Harnessing the Anti-Nociceptive Potential of NK2 and NK3 Ligands in the Design of New Multifunctional μ/δ-Opioid Agonist–Neurokinin Antagonist Peptidomimetics” (Molecules, 2021).
Read-outs that look alike come from different tables or passages of the source. Marks after values point to notes of the source that are not given here. Numbered stars: 1 amine (or outer) side, 2 acyl side, 3 side chain; on linkers, the order of the positions; unused ones are H or OH. Square brackets hold non-standard residues; d marks the D form. Peptide text beside a SMILES is read from it. * marks the point of attachment. X3 = O=C(c1c(OCCN[*:1])c(-c2ccccc2)nc2ccccc12)[*:2]; X1 = O=C1[C@@H](N[*:1])Cc2ccccc2CN1CCC(=O)[*:2]; NH(1S-phenylpropyl) = CC[C@H](N*)c1ccccc1; Dmt = Cc1cc(O)cc(C)c1C[C@H](N)C(=O)O; 4Amb = NCc1ccc(C(=O)O)cc1; Ac5c = NC1(C(=O)O)CCCC1; X2 = C(CN*)CN1CCOCC1

Key:
[1] = target: T1, human recombinant KOR (Homo sapiens, UniProt P41145); experiment: Calcium mobilization assay, CHO KOR cells with Gαqi5; format: cell-based; conditions: for KOR α ± SEM: intrinsic activity: Emax of ligand / Emax of dynorphin A
T1 construct: expressed in transfected cells; host or cells: CHO cells (gift from Prof. Girolamo Calo', Ferrara University)

[2] = target: T2, human recombinant MOR (Homo sapiens, UniProt P35372); experiment: Calcium mobilization assay, CHO MOR cells with Gαqi5; format: cell-based; conditions: for EC50 / reduction in potency at MOR compared to dermorphin / reduction in potency at MOR compared to opioid parent pharmacophore KGOP01: calcium mobilization; for EC50: CHO MOR Gαqi5, maximum tested concentration 10 µM, read-out: MOR EC50 ± SEM; for MOR α ± SEM: intrinsic activity: Emax of ligand / Emax of dermorphin
T2 construct: expressed in transfected cells; host or cells: CHO cells (gift from Prof. Girolamo Calo', Ferrara University)

[3] = target: T3, human recombinant DOR (Homo sapiens, UniProt P41143); experiment: Opioid receptor radioligand binding assay, DOR
T3 construct: expressed in transfected cells; host or cells: CHO cells (gift from Prof. Girolamo Calo', Ferrara University)

[4] = target: T1, human recombinant KOR; experiment: Opioid receptor radioligand binding assay, KOR
[5] = target: T3, human recombinant DOR; experiment: Calcium mobilization assay, CHO DOR cells with GαqG66Di5; format: cell-based; conditions: for EC50 / DOR EC50 ± SEM (nM) / decreased potency at DOR compared to reference DPDPE: calcium mobilization; for EC50 / DOR EC50 ± SEM (nM): CHO DOR GαqG66Di5, maximum tested concentration 10 µM; for EC50: read-out: DOR EC50 ± SEM; for DOR α ± SEM: intrinsic activity: Emax of ligand / Emax of DPDPE
[6] = target: T4, NK2 (h) (Homo sapiens, UniProt P21452); experiment: NK2 radioligand binding assay (Eurofins)
T4 construct: host or cells: CHO cells
T4 sequence (P21452 1-398): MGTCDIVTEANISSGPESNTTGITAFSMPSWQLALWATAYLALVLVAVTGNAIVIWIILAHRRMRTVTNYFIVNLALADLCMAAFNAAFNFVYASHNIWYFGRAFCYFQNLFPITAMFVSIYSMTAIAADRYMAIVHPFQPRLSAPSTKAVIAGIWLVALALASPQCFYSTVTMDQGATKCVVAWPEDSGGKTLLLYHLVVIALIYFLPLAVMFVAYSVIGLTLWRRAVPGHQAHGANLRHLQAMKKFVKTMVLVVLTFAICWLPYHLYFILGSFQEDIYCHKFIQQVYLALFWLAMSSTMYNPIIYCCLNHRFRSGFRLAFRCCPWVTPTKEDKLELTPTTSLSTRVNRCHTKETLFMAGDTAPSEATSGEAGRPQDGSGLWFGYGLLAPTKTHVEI

[7] = target: T5, NK3 (h) (Homo sapiens, UniProt P29371); experiment: NK3 radioligand binding assay (Eurofins)
T5 construct: host or cells: CHO cells
T5 sequence (P29371 1-465): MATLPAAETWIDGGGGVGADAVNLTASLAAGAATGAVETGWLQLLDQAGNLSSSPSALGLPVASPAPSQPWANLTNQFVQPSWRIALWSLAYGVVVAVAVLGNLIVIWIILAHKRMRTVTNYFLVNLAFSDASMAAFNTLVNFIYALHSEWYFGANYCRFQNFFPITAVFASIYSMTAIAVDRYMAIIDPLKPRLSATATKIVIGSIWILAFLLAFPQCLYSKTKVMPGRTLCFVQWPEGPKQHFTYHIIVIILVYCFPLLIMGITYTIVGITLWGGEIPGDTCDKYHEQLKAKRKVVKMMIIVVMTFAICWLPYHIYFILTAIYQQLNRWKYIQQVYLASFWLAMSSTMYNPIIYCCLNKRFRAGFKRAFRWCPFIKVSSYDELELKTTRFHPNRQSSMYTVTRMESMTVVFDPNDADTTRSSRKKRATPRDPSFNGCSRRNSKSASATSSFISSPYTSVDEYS

[8] = target: T2, human recombinant MOR; experiment: Opioid receptor radioligand binding assay, MOR
[9] = target: T3, human recombinant DOR; parameters: method as in PMID 23007594; conditions: intrinsic activity; data from reported literature ref 30; cited from earlier work
[10] = calcium mobilization, CHO KOR Gαqi5, maximum tested concentration 10 µM, crc = concentration-response curve
[11] = [125I]NKA 0.1 nM, human recombinant (CHO cells), 60 min RT, n.c. = less than 25% inhibitory binding at highest validated test concentrations, read-out: IC50 [nM] ± SEM, NK2 receptor
[12] = [125I]NKA 0.1 nM, human recombinant (CHO cells), Cheng Prusoff, n.c. = not calculated, read-out: Ki [nM] ± SEM, NK2 receptor
[13] = [3H][Ile5,6]deltorphin-2 displacement, CHO cell membranes, human recombinant receptor
[14] = [3H]DAMGO displacement, CHO cell membranes, human recombinant receptor

T3 sequence (P41143 whole entry): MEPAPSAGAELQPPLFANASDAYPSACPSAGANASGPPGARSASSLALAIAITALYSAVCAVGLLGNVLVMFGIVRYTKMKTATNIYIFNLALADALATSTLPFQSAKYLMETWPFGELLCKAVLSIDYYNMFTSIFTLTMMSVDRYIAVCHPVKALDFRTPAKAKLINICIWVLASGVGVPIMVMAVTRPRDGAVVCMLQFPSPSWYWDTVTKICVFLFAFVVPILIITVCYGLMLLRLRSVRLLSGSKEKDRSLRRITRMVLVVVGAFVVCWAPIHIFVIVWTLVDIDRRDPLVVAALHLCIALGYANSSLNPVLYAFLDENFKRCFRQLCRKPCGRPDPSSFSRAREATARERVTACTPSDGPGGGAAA
T1 sequence (P41145 whole entry): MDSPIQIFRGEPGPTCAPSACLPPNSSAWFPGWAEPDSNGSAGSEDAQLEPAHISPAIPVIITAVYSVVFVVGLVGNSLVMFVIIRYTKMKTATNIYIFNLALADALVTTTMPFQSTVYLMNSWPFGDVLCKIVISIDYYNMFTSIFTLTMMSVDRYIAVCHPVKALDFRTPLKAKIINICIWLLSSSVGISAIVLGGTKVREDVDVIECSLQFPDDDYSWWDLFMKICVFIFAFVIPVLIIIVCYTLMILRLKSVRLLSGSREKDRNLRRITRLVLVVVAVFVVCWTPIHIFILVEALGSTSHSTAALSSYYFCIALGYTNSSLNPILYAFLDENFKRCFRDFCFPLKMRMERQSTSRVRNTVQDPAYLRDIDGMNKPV
T2 sequence (P35372 whole entry): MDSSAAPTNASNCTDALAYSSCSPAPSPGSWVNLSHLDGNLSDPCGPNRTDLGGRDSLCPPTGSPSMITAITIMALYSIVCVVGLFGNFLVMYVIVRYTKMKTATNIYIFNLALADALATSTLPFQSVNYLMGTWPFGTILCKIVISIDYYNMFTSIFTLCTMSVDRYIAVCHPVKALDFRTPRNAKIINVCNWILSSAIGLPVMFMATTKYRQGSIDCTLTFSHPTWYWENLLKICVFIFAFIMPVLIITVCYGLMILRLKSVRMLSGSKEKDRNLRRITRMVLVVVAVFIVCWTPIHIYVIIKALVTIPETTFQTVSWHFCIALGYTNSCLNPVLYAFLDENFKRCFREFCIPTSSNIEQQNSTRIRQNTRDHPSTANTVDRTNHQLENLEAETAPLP

Structure (SMILES)	KOR EC50 ± SEM (nM) [1, 10]	KOR α ± SEM [1]	EC50 [2] [nM]	Ki [3] [nM]	Ki [4] [nM]	EC50 [5] [nM]	MOR α ± SEM [2]	Ki [8] [nM]	DOR α ± SEM [5]	further results
CC1(C)SSC(C)(C)[C@@H](NC(=O)[C@@H](N)Cc2ccc(O)cc2)C(=O)NCC(=O)N[C@@H](Cc2ccccc2)C(=O)N[C@H]1C(=O)O [DPDPE, reference compound]	inactive	inactive	–	–	–	–	–	–	–	–
Cc1cc(O)cc(C)c1C[C@H](N)C(=O)N[C@H](CCCNC(=N)N)C(=O)N[C@H]1Cc2ccccc2CN(CCC(N)=O)C1=O [KGOP01, H-Dmt-D-Arg-Aba-βAla-NH2, reference compound]	crc incomplete	–	0.54 ± 0.06	4.88 ± 0.11	72.7 ± 4.32	75.6 ± 13.1	–	–	–	–
CC(=O)N[C@@H](CC(=O)O)C(=O)N[C@@H](Cc1ccc(O)cc1)C(=O)N[C@H](Cc1c[nH]c2ccccc12)C(=O)N[C@H](C(=O)N[C@H](Cc1c[nH]c2ccccc12)C(=O)N[C@H](Cc1c[nH]c2ccccc12)C(=O)N[C@@H](CCCCN)C(N)=O)C(C)C [SBL-OPNK-1] (Ac-DY[dW]V[dW][dW]K-NH2)	–	–	–	–	–	–	–	–	–	IC50 [6, 11]: 33.6 ± 11.9 nM; Ki [6, 12]: 18.3 ± 13 nM; lower NK2 binding affinity compared to the reference compound ([6]; reference [Nle10]-NKA(4-10)): about 17 fold
CC[C@H](NC(=O)c1c(OCCNC(C)=O)c(-c2ccccc2)nc2ccccc12)c1ccccc1 [SBL-OPNK-3]	–	–	–	–	–	–	–	–	–	IC50 ([7]; [3H]SR 142801 0.4 nM, human recombinant (CHO cells), 120 min RT, read-out: IC50 [nM] ± SEM, NK3 receptor): 20.3 ± 7.2 nM; Ki ([7]; [3H]SR 142801 0.4 nM, human recombinant (CHO cells), Cheng Prusoff, read-out: Ki [nM] ± SEM, NK3 receptor): 11 ± 7.8 nM
Cc1cc(O)cc(C)c1C[C@H](N)C(=O)N[C@H](CCCNC(=N)N)C(=O)N[C@@H](Cc1ccccc1)C(=O)N[C@@H](CCCCN)C(=O)N[C@@H](CC(=O)O)C(=O)N[C@@H](Cc1ccc(O)cc1)C(=O)N[C@H](Cc1c[nH]c2ccccc12)C(=O)N[C@H](C(=O)N[C@H](Cc1c[nH]c2ccccc12)C(=O)N[C@H](Cc1c[nH]c2ccccc12)C(=O)N[C@@H](CCCCN)C(N)=O)C(C)C [SBL-OPNK-4] (H-[Dmt][dR]FKDY[dW]V[dW][dW]K-NH2)	crc incomplete	crc incomplete	815 ± 145	1250	90.5 ± 5.69	–	0.74 ± 0.05	1.02 ± 0.03	inactive	Ki [nM] ± SEM DOR [3, 13]: did not bind efficiently; DOR EC50 ± SEM (nM) [5]: inactive
Cc1cc(O)cc(C)c1C[C@H](N)C(=O)N[C@H](CCCNC(=N)N)C(=O)N[C@H]1Cc2ccccc2CN(CCC(=O)N[C@@H](CC(=O)O)C(=O)N[C@@H](Cc2ccc(O)cc2)C(=O)N[C@H](Cc2c[nH]c3ccccc23)C(=O)N[C@H](C(=O)N[C@H](Cc2c[nH]c3ccccc23)C(=O)N[C@H](Cc2c[nH]c3ccccc23)C(=O)N[C@@H](CCCCN)C(N)=O)C(C)C)C1=O [SBL-OPNK-5] (H-[Dmt][dR][X1]DY[dW]V[dW][dW]K-NH2)	–	0.44 ± 0.06	10.2 ± 0.67	10 ± 3.2	90.7 ± 0.94	118 ± 26	0.91 ± 0.04	2.11 ± 0.04	1.01 ± 0.03	IC50 [6]: 3 ± 1 nM; Ki [6]: 1.6 ± 1.1 nM; reduction in potency at MOR compared to dermorphin [2]: 2 fold; reduction in potency at MOR compared to opioid parent pharmacophore KGOP01 [2]: 18 fold; EC50 ([1]; calcium mobilization, CHO KOR Gαqi5, maximum tested concentration 10 µM, crc = concentration-response curve, read-out: KOR EC50 ± SEM): 415 ± 133 nM; decreased potency at DOR compared to reference DPDPE [5]: 2–3 fold
Cc1cc(O)cc(C)c1C[C@H](N)C(=O)N[C@H](CCCNC(=N)N)C(=O)N[C@@H](Cc1ccccc1)C(=O)N[C@@H](CCCCN)C(=O)NCc1ccc(C(=O)NC2(C(=O)N[C@H](Cc3ccccc3)C(=O)NCCCN3CCOCC3)CCCC2)cc1 [SBL-OPNK-6] (H-[Dmt][dR]FK[4Amb][Ac5c][dF]-X2)	crc incomplete	crc incomplete	988 ± 82	22400	100 ± 1.16	–	0.67 ± 0.05	74.93 ± 0.15	inactive	Ki [nM] ± SEM DOR [3, 13]: did not bind efficiently; Ki [nM] ± SEM MOR [8, 14]: Weak binding; DOR EC50 ± SEM (nM) [5]: inactive
Cc1cc(O)cc(C)c1C[C@H](N)C(=O)N[C@H](CCCNC(=N)N)C(=O)N[C@H]1Cc2ccccc2CN(CCC(=O)NCc2ccc(C(=O)NC3(C(=O)N[C@H](Cc4ccccc4)C(=O)NCCCN4CCOCC4)CCCC3)cc2)C1=O [SBL-OPNK-7] (H-[Dmt][dR][X1][4Amb][Ac5c][dF]-X2)	completely inactive	inactive	13.1 ± 1.84	–	–	66.5 ± 11.7	0.89 ± 0.04	–	1.02 ± 0.02	IC50 [6, 11]: 0.63 ± 0.22 nM; Ki [6, 12]: 0.34 ± 0.24 nM; reduction in potency at MOR compared to dermorphin [2]: 3 fold; reduction in potency at MOR compared to opioid parent pharmacophore KGOP01 [2]: 24 fold; Ki ([3]; [3H][Ile5,6]deltorphin-2 displacement, CHO cell membranes, human recombinant receptor, read-out: Ki [nM] ± SEM DOR): 3.26 ± 0.09 nM; Ki ([4]; [3H]nor-BNI displacement, CHO cell membranes, human recombinant receptor, read-out: Ki [nM] ± SEM KOR): 53 ± 3.2 nM; Ki ([8]; [3H]DAMGO displacement, CHO cell membranes, human recombinant receptor, read-out: Ki [nM] ± SEM MOR): 2.83 ± 0.02 nM; decreased potency at DOR compared to reference DPDPE [5]: 2–3 fold
CC[C@H](NC(=O)c1c(OCCNC(=O)[C@H](CCCCN)NC(=O)[C@H](Cc2ccccc2)NC(=O)[C@@H](CCCNC(=N)N)NC(=O)[C@@H](N)Cc2c(C)cc(O)cc2C)c(-c2ccccc2)nc2ccccc12)c1ccccc1 [SBL-OPNK-8] (H-[Dmt][dR]FK[X3]-{NH(1S-phenylpropyl)})	crc incomplete	crc incomplete	916 ± 106	4570	104 ± 6.12	–	0.65 ± 0.02	120 ± 5.25	inactive	Ki [nM] ± SEM DOR [3, 13]: did not bind efficiently; Ki [nM] ± SEM MOR [8, 14]: Weak binding; DOR EC50 ± SEM (nM) [5]: inactive
CC[C@H](NC(=O)c1c(OCCNC(=O)CCN2Cc3ccccc3C[C@H](NC(=O)[C@@H](CCCNC(=N)N)NC(=O)[C@@H](N)Cc3c(C)cc(O)cc3C)C2=O)c(-c2ccccc2)nc2ccccc12)c1ccccc1 [SBL-OPNK-9]	crc incomplete	crc incomplete	31.3 ± 7.39	6.57 ± 4.02	97.1 ± 4.72	84.1 ± 18	0.83 ± 0.05	5.43 ± 0.08	1.02 ± 0.03	IC50 [7]: 6.7 ± 2.4 nM; Ki [7]: 3.6 ± 2.5 nM; increase of NK3 affinity and potency compared to reference SB 222200 [7]: 1.5 fold; decreased potency at DOR compared to reference DPDPE [5]: 2–3 fold
CC[C@H](C)[C@H](NC(=O)[C@H](CCCNC(=N)N)NC(=O)[C@H](CCCNC(=N)N)NC(=O)[C@H](CC(C)C)NC(=O)[C@H](Cc1ccccc1)NC(=O)CNC(=O)CNC(=O)[C@@H](N)Cc1ccc(O)cc1)C(=O)N[C@@H](CCCNC(=N)N)C(=O)N1CCC[C@H]1C(=O)N[C@@H](CCCCN)C(=O)N[C@@H](CC(C)C)C(=O)N[C@@H](CCCCN)C(=O)N[C@@H](Cc1c[nH]c2ccccc12)C(=O)N[C@@H](CC(=O)O)C(=O)N[C@@H](CC(N)=O)C(=O)N[C@@H](CCC(N)=O)C(=O)O [dynorphin A]	–	–	–	–	–	–	–	–	–	DOR α ± SEM [9]: 0.99 ± 0.04 ^a
